From the NIST ThermoML archive (doi:10.1016/j.jct.2012.09.032)
Numbers after ± are expanded uncertainties.

Settings: Liquid, Ebulliometric method (Recirculating still)

CCO [ethanol]
Settings | vapor or sublimation pressure [kPa]
295.25 K | 6.7 ± 0.1
307.45 K | 13.3 ± 0.27
315.05 K | 20 ± 0.41
321.05 K | 26.7 ± 0.57
325.65 K | 33.3 ± 0.7
329.55 K | 40 ± 0.86
332.85 K | 46.7 ± 1
335.95 K | 53.3 ± 1.2
338.65 K | 60 ± 1.4
341.15 K | 66.7 ± 1.6

OCC(O)CO [glycerol]
Settings | vapor or sublimation pressure [kPa]
477.25 K | 6.7 ± 0.12
493.35 K | 13.3 ± 0.37
505.55 K | 20 ± 0.58
513.95 K | 26.7 ± 0.76
520.65 K | 33.3 ± 0.87

CO [methanol]
Settings | vapor or sublimation pressure [kPa]
282.55 K | 6.7 ± 0.1
293.75 K | 13.3 ± 0.27
301.45 K | 20 ± 0.41
307.35 K | 26.7 ± 0.56
311.85 K | 33.3 ± 0.7
315.75 K | 40 ± 0.86
319.05 K | 46.7 ± 1
322.05 K | 53.3 ± 1.2
324.65 K | 60 ± 1.4
327.25 K | 66.7 ± 1.6

O [water]
Settings | vapor or sublimation pressure [kPa]
311.15 K | 6.7 ± 0.11
324.55 K | 13.3 ± 0.35
361.85 K | 66.7 ± 2.8
